Measured values taken from patent publication US8715697B2, “Genes associated with Leishmania parasite virulence” (priority 2001, dated 2014).
Where a SMILES comes first, the peptide text is derived from it. Bridges are numbered along the chain shown (N, C = ends). Where no end group is shown, it is not given here. [ ]: non-standard residue; d: D form. The star is where a group is joined. Ileψ(thiazoline)Cys = CC[C@H](C)[C@H](N)C1=N[C@H](C(=O)*)CS1; dOrn = NCCC[C@@H](N)C(=O)O

How the values were obtained:
[1] = tested on: L. major GLC94 isolate promastigotes; assay: Evolution of the disease in BALB/c mice infected with L. major GLC94 promastigotes, lesion size; type: in vivo
From the text: Sensitive BALB/c mice were infected with 10^6 promastigotes from the GLC94 isolate into the plantar pad and treated or not treated with bacitracin. The treatment was halted 9 weeks after infection (the arrow indicates treatment stoppage).
The availability of zinc bacitracin, which already forms a weapon in the therapeutic arsenal, has allowed it to be tested on the evolution of infection in the BALB/c mouse with L. major. Mice were infected with promastigotes in the stationary growth phase (10^6 promastigotes per paw) of the GLC94 isolate into the plantar pad of the rear paw and treated with a pomade based on 5 mM or 25 mM of BACZn (prepared in Vaseline). Treatment with the pomade was started 48 hours after injecting the parasites, by dint of one application per day over 5 days of the week. Mice infected in the same manner and treated with Vaseline were used as the control. The lesion size was measured each week.

recombinant LmPDI = assay: Inhibition of reactivation of scrambled RNase A by recombinant LmPDI (thio-disulfide oxido-reductase activity); type: biochemical, Leishmania major; details: for inhibition of rLmPDI activity: FIG. 12; for concentration at which LmPDI activity is completely inhibited: inhibitors tested at 0.01, 0.1, 0.5 and 2 mM
Method: (§1) Scrambled RNase A (8 μM) was incubated in a buffer containing 4.5 mM cCMP, 1 mM glutathione GSH, 0.2 mM glutathione disulfide GSSH, 2 mM EDTA and 100 mM of Tris-HCl pH 8 in the presence of bovine serum albumin (BSA) (1.4 μM) as a negative control, bovine protein disulfide-isomerase (1.4 μM) as a positive control, or recombinant LmPDI (1.4 μM) for 30 minutes at 25° C. RNase A reactivation was determined by measuring the RNase A activity at 296 nm every 5 minutes, as described in the literature (Lyles and Gilbert, 1991).
as §1, with “The scrambled RNase” for “Scrambled RNase”, “mM Tris-HCl,” for “mM of Tris-HCl”, “pH 8,” for “pH 8”, “5 minutes for 30 minutes” for “5 minutes,”
The experimental conditions for the thio-disulfide oxido-reductase activity inhibition tests for recombinant LmPDI were strictly identical to those described in the paragraph “Reactivation of RNase A in the presence of recombinant LmPDI protein”, except that the reactions were carried out in the presence of 0.01 mM, 0.1 mM, 0.5 mM and 2 mM of the following PDI inhibitors: • bacitracin; • zinc bacitracin; • p-chloromercuribenzoic acid (pCMBA); • tocinoic acid. d) Inhibition of Parasite (L. Major) Growth in a Liquid Medium
1—Evaluation of the inhibition of recombinant LmPDI. The detailed technique for analyzing the PDI activity of LmPDI was described in Example 2 and in the Materials and Methods section above. The same technique can be used to evaluate the capacity of certain PDI inhibitors which are known or still to be identified (using a molecular model of LmPDI), by adding different concentrations of potential inhibitors to the reaction volume. The results are expressed as the percentage inhibition compared with the buffer alone. Only molecules with a significant and dose-dependent LmPDI inhibiting activity are retained.
With the aim of determining whether the different PDI inhibitors described in the literature could inhibit the thio-disulfide oxido-reductase activity of LmPDI, the capacity of these inhibitors to block the enzymatic activity of LmPDI synthesized in E. coli then purified was studied in an in vitro test, at different-concentrations. The inhibitors were: • bacitracin; • zinc bacitracin; • p-chloromercuribenzoic acid (pCMBA); • tocinoic acid.
Twenty milligrams of RNase A (Amersham.-Pharmacia) was denatured in a buffer composed of 0.15 M dithiothreitol, 6M guanidine HCl and 0.1 M Tris-HCl, pH 8.6 for 18 hours at ambient temperature. The scrambled RNase was then purified on a Sephadex G25 column equilibrated in HCl 0.01 M and quantified by spectrophotometry at 275 nm.
In a glutathione-based reducing buffer, PDI catalyzes renaturing of scrambled RNase (Gilbert, 1998). Restoration of RNase activity was measured by spectrophotometry in the presence of cytidine 2′-3′-cyclic monophosphate (cCMP) as a substrate. 8 μM of scrambled RNase, alone or in the presence of 1.4 μM of bovine serum albumin (BSA) or 1.4 μM of rLmPDI was mixed in a buffer containing 4.5 mM of cCMP, 1 mM of reduced glutathione (GSH), 200 μM of oxidized glutathione (GSSG), 2 mM EDTA and 100 mM Tris-Cl, pH 8. The reaction was carried out at ambient temperature for 30 minutes. The hydrolysis of cCMP resulting from the renaturing of RNase was recorded by measuring the absorbance at 296 nm every 5 minutes for the half hour of the reaction.
The activity of the recombinant LmPDI (rLmPDI) was measured in the presence of different concentrations of bacitracin (BAC 0.01 mM-2 mM) and zinc bacitracin (BACZn, 0.01 mM-2 mM).

GLC94 promastigotes = assay: In vitro growth kinetics of L. major promastigotes in the presence of zinc bacitracin; type: cell-based, Leishmania major; details: FIG. 13
Method: FIG. 13 illustrates the inhibition of the multiplication of GLC94 promastigotes by zinc bacitracin. The effect of zinc bacitracin (BACZn) on the multiplication of GLC94 promastogotes was determined in vitro. Different concentrations of inhibitor were tested to analyze their effect on the capacity of the parasites to multiply in vitro. The control (C) was constituted by parasites cultivated in a complete medium in the absence of inhibitors.
To this end, promastigotes from the GLC94 isolate were cultured on a medium based on coagulated rabbit serum for two days. […] Promastigotes cultured in complete medium in the absence of inhibitors were used as the control. Monitoring was by counting the parasites at 48, 72 and 96 hours.

[2] = tested on: L. major parasites in the exponential growth phase; assay: Inhibition of parasite (L. major) growth in a liquid medium by PDI inhibitors; type: cell-based, Leishmania major; details: for concentration that completely inhibited the growth of L. major in a liquid medium: counted every 24 h over 96 h, FIG. 9 and FIG. 11; for growth of Leishmania in a liquid medium (summary statement): no concentration stated, refers to Example 4
Method: They are growth curves taken over 96 hours, for promastigotes of L major in the presence of 0, 1 mM, 1.5 mM or 2 mM of bacitracin.
Different concentrations of inhibitors (0 to 5 mM) were used to follow the effect of PDI inhibitors on the multiplication of parasites in vitro. Parasites that had not been treated with inhibitors (T) were selected as a control for these experiments.
With the aim of determining the effect of bacitracin (BAC), zinc bacitracin (BACZn), p-chloromercuribenzoic acid (PCMBA) and 5,5′-dithiobis(2-nitrobenzoic acid) (DTNB) on the in vitro growth of Leishmanias in a liquid medium, different concentrations of the inhibitors cited above, 0 mM, 0.05 mM, 0.1 mM, 0.2 mM, 0.5 mM, 1 mM, 1.5 mM, 2 mM, 2.5 mM and 5 mM were added to RPMI supplemented with 5% fetal calf serum and containing 2×10^6/ml of parasites in the exponential growth phase. The parasites were incubated at 26° C. and counted every 24 hours over 96 hours. The parasites were counted on Mallassez cells.
The PDI inhibitors described in paragraph (1—) were tested with the aim of evaluating their capacities to inhibit the in vitro growth of parasites. To this end, different quantities of inhibitors were added to RPMI containing 2×10^6/ml of parasites in the exponential growth phase. The parasites were incubated at 26° C. and counted every 24 hours over 96 hours. The parasites were counted on Mallassez cells.

[3] = tested on: L. major GLC94 isolate promastigotes; details: treatments used in man; general statement; cited from earlier work

zinc bacitracin
progress of the disease (lesion size) ([1]; pomade in Vaseline applied locally at the injection site, from 48 h after infection, preliminary, FIG. 14): attenuates the progress of the disease
inhibition of rLmPDI activity (recombinant LmPDI; 0.1 mM): 50%
inhibition of rLmPDI activity (recombinant LmPDI; 0.5 mM): 70%
inhibition of rLmPDI activity (recombinant LmPDI; 2 mM): 100%
concentration at which LmPDI activity is completely inhibited (recombinant LmPDI; FIG. 10): 2 mM
growth of parasites (GLC94 promastigotes; 1 mM): no effect
growth of parasites (GLC94 promastigotes; 1.5 mM): partially inhibits
growth of parasites (GLC94 promastigotes; 2 mM): complete inhibition
growth of parasites (GLC94 promastigotes; 5 mM): complete inhibition
concentration that completely inhibited the growth of L. major in a liquid medium [2]: 2 mM

tocinoic acid (CYIQNC; not fully specified (bridges); cysteine pairing not given here; UniProt P01178 20-25, looked up, fragment)
effect on the activity of LmPDI (recombinant LmPDI; FIG. 10, at the concentrations employed (0.01 to 2 mM)): did not appear to have a very great effect

CC[C@H](C)[C@H](N)C1=N[C@H](C(=O)N[C@@H](CC(C)C)C(=O)N[C@H](CCC(=O)O)C(=O)N[C@H](C(=O)N[C@H]2CCCCNC(=O)[C@H](CC(N)=O)NC(=O)[C@@H](CC(=O)O)NC(=O)[C@H](Cc3cnc[nH]3)NC(=O)[C@@H](Cc3ccccc3)NC(=O)[C@H]([C@@H](C)CC)NC(=O)[C@@H](CCCN)NC2=O)[C@@H](C)CC)CS1 [bacitracin] ({Ileψ(thiazoline)Cys}-L[dE]IK[dOrn]I[dF]H[dD]N; lactam 4-C)
mice with lesion attenuation ([1]; pomade 5 mM): 2 out of 3
mice with lesion attenuation ([1]; pomade 25 mM): 2 out of 4
inhibition of rLmPDI activity (recombinant LmPDI; 0.1 mM): 50%
inhibition of rLmPDI activity (recombinant LmPDI; 0.5 mM): 70%
inhibition of rLmPDI activity (recombinant LmPDI; 2 mM): 100%
concentration at which LmPDI activity is completely inhibited (recombinant LmPDI; FIG. 10): 2 mM
growth of Leishmania in a liquid medium (summary statement) [2]: inhibits the growth

NC[C@@H]1O[C@H](O[C@H]2[C@@H](O)[C@H](O[C@@H]3[C@@H](O)[C@H](N)C[C@H](N)[C@H]3O[C@H]3O[C@H](CO)[C@@H](O)[C@H](O)[C@H]3N)O[C@@H]2CO)[C@H](N)[C@@H](O)[C@@H]1O [paramomycin]
effect on the disease induced in the BALB/c mouse [3]: little effect

O=S(=O)(O)c1cc[c]([Hg][Cl])cc1 [pCMBS, p-chloromercuribenzene sulfonic acid]
growth of Leishmania in a liquid medium (summary statement) [2]: inhibits the growth

CNC[C@H](O)[C@@H](O)[C@H](O)[C@H](O)CO.[O]=[Sb](=[O])[OH] [glucantime]
effect on the disease induced in the BALB/c mouse [3]: little effect

O=C(O)c1cc[c]([Hg][Cl])cc1 [pCMBA, p-chloromercuribenzoic acid]
concentration at which LmPDI activity is completely inhibited (recombinant LmPDI; FIG. 10): 0.01 mM
concentration that completely inhibited the growth of L. major in a liquid medium [2]: 0.5 mM

O=C(O)c1cc(SSc2ccc([N+](=O)[O-])c(C(=O)O)c2)ccc1[N+](=O)[O-] [DTNB, 5,5′-dithiobis(2-nitrobenzoic acid)]
effect on the growth of Leishmanias in a liquid medium ([2]; in the concentrations used (0 to 5 mM), FIG. 11): did not appear to have a very large effect
